Data from ChEMBL document CHEMBL1201862, “PubChem BioAssay data set” (2004).
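Where inhibition never reached the appropriate level, the endpoint shown equals the highest concentration tested. Otherwise, values were interpolated linearly from a five-concentration, 48-hour dose response in 96-well plates. GI50 is the concentration that inhibits growth by half.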 Calls of active or inactive are those of the source. Cut-off read from the data, not from the text of the source: active = GI50 up to about 1.1 µM and inactive = higher.

What was measured:
Test in all cases: DTP human tumour cell line panel, 48 h
786-0 = test system: 786-0
A549 = test system: A549
ACHN = test system: ACHN
CAKI-1 = test system: CAKI-1
CCRF-CEM = test system: CCRF-CEM
COLO 205 = test system: COLO 205
DLD-1 = test system: DLD-1
DMS-114 = test system: DMS-114
DMS-273 = test system: DMS-273
EKVX = test system: EKVX
HCC 2998 = test system: HCC 2998
HCT-116 = test system: HCT-116
HCT-15 = test system: HCT-15
HL-60 = test system: HL-60
HOP-18 = test system: HOP-18
HOP-92 = test system: HOP-92
HT-29 = test system: HT-29
IGROV-1 = test system: IGROV-1
K562 = test system: K562
KM-20L2 = test system: KM-20L2
LOX IMVI = test system: LOX IMVI
LXFL 529 = test system: LXFL 529
M14 = test system: M14
M19-MEL = test system: M19-MEL
MOLT-4 = test system: MOLT-4
Malme-3M = test system: Malme-3M
NCI-H226 = test system: NCI-H226
NCI-H23 = test system: NCI-H23
NCI-H460 = test system: NCI-H460
NCI-H522 = test system: NCI-H522
OVCAR-3 = test system: OVCAR-3
OVCAR-4 = test system: OVCAR-4
OVCAR-5 = test system: OVCAR-5
RXF 393 = test system: RXF 393
RXF 631 = test system: RXF 631
SF-268 = test system: SF-268
SF-295 = test system: SF-295
SF-539 = test system: SF-539
SK-MEL-28 = test system: SK-MEL-28
SK-MEL-2 = test system: SK-MEL-2
SK-MEL-5 = test system: SK-MEL-5
SK-OV-3 = test system: SK-OV-3
SNB-19 = test system: SNB-19
SNB-75 = test system: SNB-75
SW-620 = test system: SW-620
TK-10 = test system: TK-10
UACC-257 = test system: UACC-257
UACC-62 = test system: UACC-62
UO-31 = test system: UO-31

O=C(c1nc2ccc(Cl)cc2[nH]c1=O)C(O)c1ccco1 (centres undefined)
GI50 (786-0): > 100 µM (inactive) | GI50 (A549): 50 µM (inactive) | GI50 (ACHN): 38.6 µM (inactive) | GI50 (CAKI-1): 53 µM (inactive) | GI50 (CCRF-CEM): 1.37 µM (inactive) | GI50 (COLO 205): > 100 µM (inactive) | GI50 (DLD-1): > 100 µM (inactive) | GI50 (DMS-114): 4.91 µM (inactive) | GI50 (DMS-273): 35.5 µM (inactive) | GI50 (EKVX): > 100 µM (inactive) | GI50 (HCC 2998): 44 µM (inactive) | GI50 (HCT-116): 46.7 µM (inactive) | GI50 (HCT-15): 15.5 µM | GI50 (HL-60): 6.14 µM (inactive) | GI50 (HOP-18): > 100 µM (inactive) | GI50 (HOP-92): > 100 µM (inactive) | GI50 (HT-29): 83.6 µM (inactive) | GI50 (IGROV-1): 45.9 µM (inactive) | GI50 (K562): 22.1 µM (inactive) | GI50 (KM-20L2): 24.5 µM (inactive) | GI50 (LOX IMVI): 36.6 µM (inactive) | GI50 (LXFL 529): 42.9 µM (inactive) | GI50 (M14): 29.4 µM (inactive) | GI50 (M19-MEL): > 100 µM (inactive) | GI50 (MOLT-4): 8.57 µM (inactive) | GI50 (Malme-3M): > 100 µM (inactive) | GI50 (NCI-H226): > 100 µM (inactive) | GI50 (NCI-H23): > 100 µM (inactive) | GI50 (NCI-H460): 57.9 µM (inactive) | GI50 (NCI-H522): 1.9 µM (inactive) | GI50 (OVCAR-3): 46 µM (inactive) | GI50 (OVCAR-4): > 100 µM (inactive) | GI50 (OVCAR-5): > 100 µM (inactive) | GI50 (RXF 393): > 100 µM (inactive) | GI50 (RXF 631): 6.04 µM (inactive) | GI50 (SF-268): 98.9 µM (inactive) | GI50 (SF-295): > 100 µM (inactive) | GI50 (SF-539): 38.1 µM (inactive) | GI50 (SK-MEL-28): > 100 µM (inactive) | GI50 (SK-MEL-2): 87.1 µM (inactive) | GI50 (SK-MEL-5): 25.5 µM (inactive) | GI50 (SK-OV-3): > 100 µM (inactive) | GI50 (SNB-19): > 100 µM (inactive) | GI50 (SNB-75): > 100 µM (inactive) | GI50 (SW-620): > 100 µM (inactive) | GI50 (TK-10): > 100 µM (inactive) | GI50 (UACC-257): > 100 µM (inactive) | GI50 (UACC-62): 40.4 µM (inactive) | GI50 (UO-31): 42.9 µM (inactive)
